Laboratory results taken from patent US12553041B2, “Formulations and doses of pegylated uricase” (Cartesian Therapeutics Inc., priority 2019, dated 2026).
“And” between values parts separate entries of the source, which are not always exact repeats. Equal entries are not always repeated. Where two headings read alike, the source gives them in different places.

What was measured:
uricase activity = settings: human, in vivo
Method: Methods: Patients with symptomatic gout (≥1 tophus, gout flare within 6 months or gouty arthropathy) and elevated SUA ≥6 mg/dL were treated with fixed doses of the pegylated uricase (0.2 mg/kg) in combination with SEL-110 (0.1 and 0.15 mg/kg), or the pegylated uricase (0.2 or 0.4 mg/kg) alone as a control. Patients were infused in 28-day cycles up to 5 times. Safety, tolerability, sUA, ADAs, and uricase activity were monitored.
Uricase activity was measured fluorometrically. As uricase converts uric acid into allantoin and H2O2, horseradish peroxidase was added and reached with H2O2 and a fluorescent probe to yield a quantifiable signal.

[1] = system: subjects with elevated serum uric acid levels greater than 6 mg/dl; assay: Phase 1a clinical trial, single intravenous infusion of pegsiticase alone; assay type: in vivo
Method: The Phase 1a clinical trial for SEL 212 was an ascending dose trial of pegsiticase alone in 22 subjects with elevated serum uric acid levels greater than 6 mg/dl who were separated into five cohorts. Each cohort received a single intravenous infusion of pegsiticase at the following dose levels of 0.1 mg/kg for Cohort #1, 0.2 mg/kg for Cohort #2, 0.4 mg/kg for Cohort #3, 0.8 mg/kg for Cohort #4 and 1.2 mg/kg for Cohort #5. Dosing began with the lowest dose and only after an entire cohort was safely dosed was the next cohort started.
FIG. 4 depicts average serum uric acid levels of the Phase 1a clinical trial's five cohorts tested at different measurement intervals (Day 7, 14, 21 and 30) during the course of the 30 day period following the single intravenous infusion of pegsiticase at the outset of the trial.
The serum uric acid levels were measured at baseline and days seven, 14, 21 and 30 and uricase specific ADA levels at baseline and days seven, 14 and 30 following a single intravenous injection of pegsiticase. Uricase specific ADA levels at day 21 in the Phase 1a clinical trial were not measured. Based on the results from the Phase 1a clinical trial, it was observed that pegsiticase at a tolerated dose is capable of achieving and maintaining a reduction of serum uric acid below the target of 6 mg/dl for a 30 day period in the absence of inhibitory uricase specific ADAs.

anti-uricase IgG = assay: Anti-uricase antibody titer by sandwich ELISA, monthly dosing in symptomatic gout patients; assay type: in vivo, human
Method: Safety, tolerability, sUA, ADAs, and uricase activity were monitored.
In this example, “responder” indicates an individual with serum uric acid values […] and serum uric acid ≤1 mg/dL on day 21 (stopping rule). In this example, a “non-responder” is a subject having serum uric acid levels ≥6 mg/dL at any time during a 28 day dosing cycle. The “maximum titer” is the maximum titer observed during a 28 day dosing cycle.
Anti-uricase antibodies were detected using a sandwich ELISA. […] Uricase activity was measured fluorometrically.

nonhuman primates = assay: Proof of concept study in nonhuman primates, uricase specific ADAs; assay type: in vivo; settings: pegsiticase alone, five monthly doses; by the end of the study
Method: A preclinical study to evaluate the ability of SVP Rapamycin to mitigate the formation of uricase specific ADAs in nonhuman primates was also conducted. As depicted in FIG. 3, during the study: • pegsiticase was administered alone, referred to as the Empty Nanoparticle Group, or • was co-administered with one of two dose levels of SVP Rapamycin, referred to as the SVP Rapamycin 0.1× and SVP Rapamycin 1× Groups, respectively. The SVP Rapamycin 0.1× Group received a dose level of SVP Rapamycin of 0.3 mg/kg and the SVP Rapamycin 1× Group received a dose level of SVP Rapamycin of 3 mg/kg.
The Empty Nanoparticle Group received three monthly doses of pegsiticase and each of the SVP Rapamycin 0.1× Group and SVP Rapamycin 1× Group received three monthly doses of pegsiticase co-administered with SVP Rapamycin. All groups then received two monthly doses of pegsiticase alone. The SVP Rapamycin 0.1× Group received one tenth of the dose administered in the SVP Rapamycin 1× Group.

[2] = system: patients with serum uric acid levels greater than 6 mg/dl; assay: Phase 1b clinical trial, SVP Rapamycin alone, pegsiticase alone or SEL 212
Method: The Phase 1b clinical trial enrolled 63 patients with serum uric acid levels greater than 6 mg/dl separated into 11 cohorts. A single intravenous infusion of SVP Rapamycin alone at the following ascending dose levels was administered to four cohorts in ascending order. Each cohort consisted of seven patients and were designated as follows: Cohort #1 (0.03 mg/kg), Cohort #3 (0.1 mg/kg), Cohort #5 (0.3 mg/kg) and Cohort #7 (0.5 mg/kg) collectively the SVP Rapamycin Cohorts. After a cohort of the SVP-Rapamycin alone had successfully and safely been dosed the corresponding dose level of SVP Rapamycin was combined with a fixed dose of pegsiticase (0.4 mg/kg). The combination was co-administered sequentially as a single intravenous infusion, with the SVP Rapamycin infusion preceding the pegsiticase infusion. The cohort designation is as follows for the six cohorts (5 patients per cohort), which were Cohort #2 (SVP Rapamycin 0.03 mg/kg+0.4 mg/kg pegsiticase), Cohort #4 (SVP Rapamycin 0.1 mg/kg+0.4 mg/kg pegsiticase), Cohort #6 (SVP Rapamycin 0.3 mg/kg+0.4 mg/kg pegsiticase), Cohort #10 (0.4 mg/kg pegsiticase+0.03 mg/kg SVP Rapamycin separated by 48 hours), Cohort #12 (SVP Rapamycin 0.15 mg/kg+0.4 mg/kg pegsiticase) and Cohort #14 (SVP Rapamycin 0.1 mg/kg+0.4 mg/kg pegsiticase) collectively the SEL 212 Cohorts. In Cohort #9 a fixed amount of pegsiticase alone at a dose level of 0.4 mg/kg was administered to five patients, which is referred to as the Pegsiticase Cohort. […] The subjects were monitored during a 30 day period post infusion with visits occurring on day 7, 14,21 and the end of trial visit on day 30. Blood and serum of each patient was evaluated for serum uric acid, ADAs (specifically anti-PEG, anti-uricase and anti-pegsiticase) and safety parameters. The primary objective of the Phase 1b clinical trial was to evaluate the safety and tolerability of SVP Rapamycin alone and in combination with a fixed dose of pegsiticase. A secondary clinical objective was to evaluate the ability of SVP Rapamycin co-administered with pegsiticase to reduce serum uric acid levels and mitigate the formation of uricase specific ADAs when compared to administration of pegsiticase alone.

[3] = system: mice genetically deficient in endogenous uricase; assay: Proof of concept study in uricase deficient mice; assay type: in vivo
Method: A pharmacology study in mice that were genetically deficient in endogenous uricase was conducted. The study evaluated the efficacy of a dose regimen consisting of three immunizations with SEL 212 followed by doses of pegsiticase alone in preventing the formation of ADAs to pegsiticase. The treatment period consisted of the first 14 days of the study. In the study, mice were separated into three treatment groups. During the treatment period: • the first group, referred to as the Untreated Group, received no treatment; • the second group, referred to as the Pegsiticase Group, was treated with pegsiticase alone; and • the third group, referred to as the SVP Rapamycin+Pegsiticase Group, was treated with SVP Rapamycin co administered with pegsiticase.
The Pegsiticase Group and SVP Rapamycin+Pegsiticase Group were treated on days zero, seven and 14 of the treatment period. Each group was then treated with pegsiticase alone on days 35 and 42 of the study, or the challenge period. Uricase specific ADA levels were recorded to determine the formation of ADAs to pegsiticase. Uric acid levels were measured to determine effectiveness of SVP Rapamycin co administered with pegsiticase in lowering uric acid levels below 6 mg/dl, which is the treatment target for gout patients.

[4] = system: patients with hyperuricemia and gout; settings: cited from earlier work; for Subjects that required treatment for at least one gout flare: first 8 weeks, with gout flare prophylaxis; for Flares per patient month (flare frequency): worked out from literature data
[5] = system: patients with refractory gout; settings: cited from earlier work; for Flares per patient month (flare frequency): worked out from literature data; for Mean uric acid levels at four weeks: monthly dosing
patients with gout = settings: cited from earlier work; for Patients with gout flares requiring treatment in a month: colchicine prophylaxis; for Flares per patient month (flare frequency): worked out from literature data

For “Recombinant Pegylated Candida Urate Oxidase [pegsiticase]”, the “Average uricase activity AUC” value (uricase activity) was 3437 mU/dL*wk, the “Flare in 1st month” value ([1]; individual subject with history of gout, SEL-037 0.8 mg/kg) was “no” and the “Flare in 1st month” value ([1]; individual subjects with history of gout, SEL-037 0.1 mg/kg, 0.1 mg/kg) was “no and yes (2×) and yes (positive for”. For the same compound, the “Flare in 1st month” value ([1]; individual subjects with history of gout, SEL-037 0.2 mg/kg, 0.2 mg/kg) was “no and yes (mild gout, right”, the “Subjects with a history of gout with signs of gout flare in the first month” value ([1]; pegsiticase alone, 4 out of 7 patients) was 57% and the “Onset of reduction of average serum uric acid levels” value ([1]; single IV infusion, 0.1 to 1.2 mg/kg) was “within hours”. The “Serious adverse events and tolerability” value ([1]; single IV infusion, five dose levels 0.1 to 1.2 mg/kg) was “no serious adverse events and was well tolerated”, the “Uricase specific ADAs” value ([1]; single IV infusion, varying levels) was “induced uricase specific ADAs in all subjects” and the “Serum uric acid maintained” value ([1]; tolerated dose, 30 day period, in the absence of inhibitory uricase specific ADAs) was less than 6 mg/dL. The “Treatment periods with maximum antibody titers <1080” value (anti-uricase IgG; 28-day cycles, SEL-212 111/133, pegylated uricase alone 1/7 treatment periods) was 14.3%, the Anti-uricase antibodies (anti-uricase IgG; pegylated uricase alone, discontinued from the study within the first two months) was “developed high titer antibodies” and the “Uricase specific ADAs” value (nonhuman primates) was “high levels of uricase specific ADAs”. The “Subjects that returned to baseline serum uric acid levels by day 30” value ([2]; Cohort #9: pegsiticase alone 0.4 mg/kg) was “four of the five”, the “Enzyme activity past day 14” value ([2]; pegsiticase alone 0.4 mg/kg, Cohort #3 Phase 1a and Cohort #9 Phase 1b) was “loose the enzyme activity” and the “Uricase specific ADA formation” value ([2]; pegsiticase alone 0.4 mg/kg, Cohort #3 Phase 1a and Cohort #9 Phase 1b, resulting in return to baseline serum uric acid) was “uricase specific ADA formation at day 14”. The “Serum uric acid, initial control” value ([2]; pegsiticase alone 0.4 mg/kg, Cohort #3 Phase 1a and Cohort #9 Phase 1b, up to day 14) was “below 6 mg/dL”, the Uric acid levels ([3]; after the first dose in the treatment period) was “below 6 mg/dl” and the Uric acid levels ([3]; subsequent doses in the treatment period and challenge period) was greater than 6 mg/dL. The “Uricase specific ADA levels (antibody formation)” value ([3]; uricase deficient mice, treatment period (days 0, 7, 14) and challenge period (days 35, 42)) was “developed uricase specific ADAs”.

For Cc1nc(-c2ccc(OCC(C)C)c(C#N)c2)sc1C(=O)O [Febuxostat, febuxostat], the “Subjects that required treatment for at least one gout flare” value ([4]; 80 mg/day, out of 255 subjects) is given as 55, the “Flares per patient month (flare frequency)” value (“Flares per patient month” for short) ([4]; 80 mg/day) is given as 0.22 flares per patient month and the “Flares per patient month” value ([4]; 80 mg/day, listed as febuxostat) is given as “at least 0.22 flares per patient month”. For the same compound, the “Subjects that required treatment for at least one gout flare” value ([4]; 120 mg/day, out of 250 subjects) was 90, the “Flares per patient month” value ([4]; 120 mg/day) was 0.36 flares per patient month and the “Flares per patient month” value ([4]; 120 mg/day, listed as febuxostat) was no less than 0.36 flares per patient month.

For pegloticase [KRYSTEXXA®], the “Treated subjects that developed ADAs” value ([5]; all KRYSTEXXA-treated subjects) is listed as 89%, the “Flares per patient over the first 3 months” value ([5]; biweekly pegloticase, 85 patients) is listed as 2.3 flares per patient and the “Time of efficacy (area under curve of mean AIN levels over time)” value ([5]; biweekly, nonresponders) is listed as “Nonresponders-84.35”. For the same compound, the “Time of efficacy (area under curve of mean AIN levels over time)” value ([5]; biweekly, responders) was “Responders-26.6”, the “Flares per patient month” value ([5]; biweekly) was 0.77 flares per patient month and the “Subjects classified as non-responders” value ([5]; monthly dosing cohorts) was 65%. For the same compound, the “Subjects classified as responders (uric acid below 6 mg/dl for 80% of the time at months three and six)” value ([5]; monthly dosing cohorts) was 35%, the “Mean uric acid levels at four weeks” value ([5]; non-responders) was “above 6 mg/dl” and the “Mean uric acid levels at four weeks” value ([5]; responders) was “above 4 mg/dl”. For the same compound, the “Flares per patient over the first 3 months” value ([5]; monthly pegloticase, 84 patients) was 2.7 flares per patient, the “Time of efficacy (area under curve of mean AIN levels over time)” value ([5]; monthly, nonresponders) was “Nonresponders-99.75” and the “Time of efficacy (area under curve of mean AIN levels over time)” value ([5]; monthly, responders) was “Responders-53.55”. The “Flares per patient month” value ([5]; monthly, listed as Pegloticase) was 0.90 flares per patient month and the “Flares per patient month” value ([5]; monthly, listed as pegloticase) was 0.9 flares per patient month.

For O=C(O)CSc1nnc(Br)n1-c1ccc(C2CC2)c2ccccc12 [Lesinurad, lesinurad], the “Patients with gout flares requiring treatment in a month” value (“Patients” below) (patients with gout; 200 mg daily, out of 46 patients) is given as 10, the “Time of efficacy (area under curve of mean AIN levels over time)” value (patients with gout; 200 mg/day) is given as 158.5 and the “Flares per patient month” value (patients with gout; 200 mg/day) is given as 0.22 flares per patient month. The “Patients” value (patients with gout; 400 mg daily, out of 42 patients) was 13, the “Time of efficacy (area under curve of mean AIN levels over time)” value (patients with gout; 400 mg/day) was 165.8 and the “Flares per patient month” value (patients with gout; 400 mg/day) was 0.31 flares per patient month. For the same compound, the “Patients” value (patients with gout; 600 mg daily, out of 48 patients) was 15, the “Time of efficacy (area under curve of mean AIN levels over time)” value (patients with gout; 600 mg/day) was 167.5 and the “Flares per patient month” value (patients with gout; 600 mg/day) was 0.31 flares per patient month.
